Data from the supplement of paper PMC10307832.

Columns and labels:
Test in all cases: relative viability (nuclei count vs DMSO), 5 days (fraction); higher = more cells survive
Everolimus + Tozasertib = compound: CO[C@H]1C[C@@H]2CC[C@@H](C)[C@@](O)(O2)C(=O)C(=O)N2CCCC[C@H]2C(=O)O[C@H]([C@H](C)C[C@@H]2CC[C@@H](OCCO)[C@H](OC)C2)CC(=O)[C@H](C)/C=C(\C)[C@@H](O)[C@@H](OC)C(=O)[C@H](C)C[C@H](C)/C=C/C=C/C=C/1C [Everolimus] + Cc1cc(Nc2cc(N3CCN(C)CC3)nc(Sc3ccc(NC(=O)C4CC4)cc3)n2)n[nH]1 [Tozasertib] (partner 0.1 µM)
Procedure, shortened: (§1)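 Lung cancer cell lines in 1536-well plates were dosed by pin tool the day after seeding, either with one drug alone or with a fixed anchor-drug dose plus five library-drug doses (not always all listed) in √10 steps. After 5 days, cells were fixed and their nuclei stained in one step (final 0.05% Triton X-100, 1% formaldehyde, 1 ug/ml Hoechst), then counted on 4× images. Relative viability is the nuclei count in treated wells divided by that in vehicle wells. Values are medians of duplicate plates.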

Everolimus + Vorinostat = compound: CO[C@H]1C[C@@H]2CC[C@@H](C)[C@@](O)(O2)C(=O)C(=O)N2CCCC[C@H]2C(=O)O[C@H]([C@H](C)C[C@@H]2CC[C@@H](OCCO)[C@H](OC)C2)CC(=O)[C@H](C)/C=C(\C)[C@@H](O)[C@@H](OC)C(=O)[C@H](C)C[C@H](C)/C=C/C=C/C=C/1C [Everolimus] + O=C(CCCCCCC(=O)Nc1ccccc1)NO [Vorinostat] (partner 1 µM)
Procedure, shortened: as §1

Everolimus + Crizotinib = compound: CO[C@H]1C[C@@H]2CC[C@@H](C)[C@@](O)(O2)C(=O)C(=O)N2CCCC[C@H]2C(=O)O[C@H]([C@H](C)C[C@@H]2CC[C@@H](OCCO)[C@H](OC)C2)CC(=O)[C@H](C)/C=C(\C)[C@@H](O)[C@@H](OC)C(=O)[C@H](C)C[C@H](C)/C=C/C=C/C=C/1C [Everolimus] + C[C@@H](Oc1cc(-c2cnn(C3CCNCC3)c2)cnc1N)c1c(Cl)ccc(F)c1Cl [Crizotinib] (partner 1 µM)
Procedure, shortened: as §1

Everolimus + Navitoclax = compound: CO[C@H]1C[C@@H]2CC[C@@H](C)[C@@](O)(O2)C(=O)C(=O)N2CCCC[C@H]2C(=O)O[C@H]([C@H](C)C[C@@H]2CC[C@@H](OCCO)[C@H](OC)C2)CC(=O)[C@H](C)/C=C(\C)[C@@H](O)[C@@H](OC)C(=O)[C@H](C)C[C@H](C)/C=C/C=C/C=C/1C [Everolimus] + CC1(C)CCC(c2ccc(Cl)cc2)=C(CN2CCN(c3ccc(C(=O)NS(=O)(=O)c4ccc(N[C@H](CCN5CCOCC5)CSc5ccccc5)c(S(=O)(=O)C(F)(F)F)c4)cc3)CC2)C1 [Navitoclax] (partner 0.5 µM)
Procedure, shortened: as §1

Cell Line | relative viability (Everolimus + Tozasertib; first compound 0.01 µM) | relative viability (Everolimus + Tozasertib; first compound 0.03162 µM) | relative viability (Everolimus + Tozasertib; first compound 0.1 µM) | relative viability (Everolimus + Tozasertib; first compound 0.3162 µM) | relative viability (Everolimus + Tozasertib; first compound 1 µM) | relative viability (Everolimus + Vorinostat; first compound 0.01 µM) | relative viability (Everolimus + Vorinostat; first compound 0.03162 µM) | relative viability (Everolimus + Vorinostat; first compound 0.1 µM) | relative viability (Everolimus + Vorinostat; first compound 0.3162 µM) | relative viability (Everolimus + Vorinostat; first compound 1 µM) | relative viability (Everolimus + Crizotinib; first compound 0.01 µM) | relative viability (Everolimus + Crizotinib; first compound 0.03162 µM) | relative viability (Everolimus + Crizotinib; first compound 0.1 µM) | relative viability (Everolimus + Crizotinib; first compound 0.3162 µM) | relative viability (Everolimus + Crizotinib; first compound 1 µM) | relative viability (Everolimus + Navitoclax; first compound 0.01 µM) | relative viability (Everolimus + Navitoclax; first compound 0.03162 µM) | relative viability (Everolimus + Navitoclax; first compound 0.1 µM) | relative viability (Everolimus + Navitoclax; first compound 0.3162 µM) | relative viability (Everolimus + Navitoclax; first compound 1 µM)
COR-L 105 | 0.312 | 0.305 | 0.332 | 0.346 | 0.292 | 0.58 | 0.465 | 0.535 | 0.572 | 0.59 | 0.549 | 0.642 | 0.469 | 0.544 | 0.49 | 0.574 | 0.636 | 0.616 | 0.652 | 0.57
LK-2 | 0.165 | – | 0.179 | 0.17 | 0.17 | 0.243 | 0.174 | 0.188 | 0.21 | 0.189 | 0.24 | – | 0.22 | 0.284 | 0.227 | 0.851 | 0.557 | 0.408 | 0.508 | 0.461
NCI-H727 | 0.525 | 0.562 | 0.505 | 0.713 | 0.53 | 0.915 | 0.797 | 0.79 | 0.922 | 0.886 | 0.47 | 0.443 | 0.553 | 0.49 | 0.496 | 0.263 | 0.211 | 0.179 | 0.231 | 0.208
RERF-LC-KJ | 0.398 | 0.436 | 0.382 | 0.431 | 0.428 | 0.552 | 0.461 | 0.446 | 0.478 | 0.49 | 0.804 | 0.627 | 0.683 | 0.667 | 0.567 | 0.778 | 0.571 | 0.47 | 0.579 | 0.488
NCI-H2023 | 0.273 | 0.203 | 0.235 | 0.235 | 0.225 | 0.496 | 0.441 | 0.341 | 0.372 | 0.379 | 0.433 | 0.388 | 0.368 | 0.395 | 0.312 | 0.763 | 0.471 | 0.529 | 0.536 | 0.348
NCI-H322M | 0.416 | 0.355 | 0.397 | 0.421 | 0.426 | 0.77 | 0.601 | 0.712 | 0.654 | 0.713 | 0.914 | 0.753 | 0.775 | 0.795 | 0.704 | 1.21 | 1.05 | 0.905 | 0.902 | 0.79
NCI-H1666 | 0.571 | 0.625 | 0.559 | 0.668 | 0.527 | 1.04 | 1.08 | 1.04 | 1.05 | 0.92 | 0.878 | 0.776 | 0.629 | 0.877 | 0.654 | 0.766 | 0.687 | 0.508 | 0.559 | 0.42
SW 900 | 0.332 | 0.462 | 0.442 | 0.404 | 0.448 | 0.41 | 0.301 | 0.339 | 0.37 | 0.266 | – | – | – | – | – | – | – | – | – | –
NCI-H2087 | 0.256 | 0.199 | 0.198 | 0.218 | 0.174 | 0.321 | 0.5 | 0.443 | 0.46 | 0.532 | 1.18 | 1.01 | 0.783 | 0.885 | 0.922 | 0.888 | 0.852 | 0.888 | 0.847 | 0.69
LU99A | 0.23 | 0.282 | 0.252 | 0.222 | 0.263 | 0.367 | 0.371 | 0.325 | 0.311 | 0.471 | 0.415 | 0.413 | 0.35 | 0.451 | 0.351 | 0.409 | 0.503 | 0.406 | 0.412 | 0.421
HCC-366 | 0.097 | 0.102 | 0.347 | 0.0539 | 0.0447 | 0.221 | 0.16 | 0.181 | 0.214 | 0.165 | 0.433 | 0.441 | 0.526 | 0.295 | 0.372 | 0.859 | 0.823 | 0.871 | 0.91 | 0.511
EKVX | 0.327 | 0.333 | 0.214 | 0.257 | 0.259 | 0.72 | 0.567 | 0.429 | 0.451 | 0.425 | 0.718 | 0.656 | 0.684 | 0.721 | 0.75 | 0.542 | 0.75 | 0.505 | 0.514 | 0.654
NCI-H2342 | 0.557 | 0.4 | 0.435 | 0.352 | 0.407 | 0.559 | 0.438 | 0.524 | 0.56 | 0.633 | – | – | – | – | – | – | – | – | – | –
NCI-H1755 | 0.594 | 0.488 | 0.538 | 0.525 | 0.425 | 0.616 | 0.599 | 0.61 | 0.568 | 0.602 | 0.777 | 0.715 | 0.679 | 0.6 | 0.554 | 0.75 | 0.624 | 0.599 | 0.646 | 0.513
